Test results taken from patent EP0571670A1, “Pharmaceutical compositions for use as mast cell stabilizer” (THE PROCTER & GAMBLE COMPANY, priority 1992, dated 1993).
Read-outs that look alike come from different tables or passages of the source.

How the values were obtained:
[1] = system: rat peritoneal mast cells; assay: Mast cell stabilization test: induced histamine release; type: cell-based, Wistar male rats; conditions: at the concentrations used: sodium cromoglycate 0.005 %, menthol 0.025 %, camphor 0.015 %, eucalyptol 0.0075 %
Description: (§1) Peritoneal rat mast cells are collected from 250 to 300 g Wistar male rats by the following procedure. Following sacrifice, each rat is injected into the peritoneal cavity with 10 ml of ice cold HEPES-buffered salt solution (HBSS), pH 7.2, containing 5 U/ml heparin. The HBSS contains 137 mM of […], 10mM HEPES, 5mM D-glucose, 2.7 mM KCl, 0.4 mM NaH₂PO₄, 0.5 mM MgCl₂ and 1 % foetal calf serum (FCS). The abdomen is massaged gently for 2 to 3 minutes and then an incision is made in the abdomen, the buffer removed by a pipette, and the peritoneal cavity lavaged twice with ice-cold HBSS. The extract is then centrifuged at 200 rpm for 10 minutes at 20°C to collect the peritoneal mast cells. These cells are then suspended again in HBSS. A count of cells present is made using an aliquot of this suspension by staining with Kimura metachromatic stain. Typically, about 1.2 to 1.7x10⁶ mast cells are collected from each animal. The rat mast cells are then activated using a Compound 48/80 in the presence of the test aromatic and antihistamine compounds and histamine-release measured as follows. 720 µl aliquots containing 9 x 10⁴ mast cells at 37°C are added to vials containing various combinations of aromatic flavour compounds. The concentrations of tyloxapol, menthol, camphor, and eucalyptol are 0.7 %, 0.025 %, 0.015 %, and 0.0075 % respectively. The solutions are incubated for about 10 minutes before 200 µl aliquots are added to tubes containing 25 µl of Compound 48/80, 25 µl of sodium cromoglycate and/or buffer, giving a concentration of Compound 48/80 and sodium cromoglycate in the tubes of […] and 0.005 % respectively. The histamine release reactions in the tubes is terminated after 10 minutes (37°C) by adding 750 µl of ice-cold HBSS and centrifuging the resulting solution for 10 minutes at 2000 rpm at 4°C. The histamine released by stimulus and the total cell histamine content are respectively determined by assaying the supernatant liquid after acidification with 5 % trichloroacetic acid (TCA) and by disintegrating the cells in 5 % (TCA) followed by analysis by automated spectrofluoremetry. […] (The net histamine release induced by compound 48/80 at the concentration used (0.1 µg/ml) was about three times the net histamine release induced by tyloxapol (15.07 ± 2.0 %)).

[2] = system: rat peritoneal mast cells; assay: Mast cell stabilization test: histamine release inhibition; type: cell-based, Wistar male rats; conditions: for inhibition at 100 µM: Rattus norvegicus, Mast cell, 100 µM of sodium cromoglycate
Description: as §1, with “Eucalyptol” for “(The net histamine release induced by compound 48/80”, “0.0075 % gave a 9 % (non-significant) inhibitory effect. Menthol at 0.025 %” for “the concentration used (0.1 µg/ml)”, “not effective.” for “about three times the net histamine release induced by tyloxapol (15.07 ± 2.0 %)).”

Structure (SMILES) | release of histamine induced by the substance [1] | inhibition at 100 µM ([2]; read-out: inhibition of Compound 48/80-induced histamine release) [%] | inhibition at 100 µM ([2]; read-out: inhibition of tyloxapol-induced histamine release) [%] | inhibition of histamine release ([2]; menthol at 0.025 %) | inhibition of histamine release against Compound 48/80 and tyloxapol-induced histamine release ([2]; camphor at 0.015 %, series of five experiments) [%] | inhibitory effect on histamine release ([2]; eucalyptol at 0.0075 %, non-significant) [%]
O=C(O)c1cc(=O)c2c(OCC(O)COc3cccc4oc(C(=O)O)cc(=O)c34)cccc2o1 [sodium cromoglycate] | did not induce release of histamine | 67 | 152 |  |  | 
CC1CCC(C(C)C)C(O)C1 (stereo not drawn) [menthol] | did not induce release of histamine |  |  | not effective |  | 
CC12CCC(CC1=O)C2(C)C (stereo not drawn) [camphor] | did not induce release of histamine |  |  |  | 45 | 
CC12CCC(CC1)C(C)(C)O2 [eucalyptol] | did not induce release of histamine |  |  |  |  | 9
